Experimental data from ChEMBL document CHEMBL3616453, “Recent progress in the development of small-molecule glucagon receptor antagonists” (Bioorg Med Chem Lett, 2015).
Each block holds one compound with its values, some of them ahead of it.

What was measured:
Glucagon receptor [1] = target: T1, Glucagon receptor (Homo sapiens, UniProt P47871); assay: Antagonist activity at recombinant human glucagon receptor expressed in CHO cells assessed as inhibition of glucagon-stimulated intracellular cAMP formation preincubated for 30 mins followed by glucagon stimulation measured after 45 mins by LANCE assay; format: functional, cell-based
T1 sequence (P47871 whole entry): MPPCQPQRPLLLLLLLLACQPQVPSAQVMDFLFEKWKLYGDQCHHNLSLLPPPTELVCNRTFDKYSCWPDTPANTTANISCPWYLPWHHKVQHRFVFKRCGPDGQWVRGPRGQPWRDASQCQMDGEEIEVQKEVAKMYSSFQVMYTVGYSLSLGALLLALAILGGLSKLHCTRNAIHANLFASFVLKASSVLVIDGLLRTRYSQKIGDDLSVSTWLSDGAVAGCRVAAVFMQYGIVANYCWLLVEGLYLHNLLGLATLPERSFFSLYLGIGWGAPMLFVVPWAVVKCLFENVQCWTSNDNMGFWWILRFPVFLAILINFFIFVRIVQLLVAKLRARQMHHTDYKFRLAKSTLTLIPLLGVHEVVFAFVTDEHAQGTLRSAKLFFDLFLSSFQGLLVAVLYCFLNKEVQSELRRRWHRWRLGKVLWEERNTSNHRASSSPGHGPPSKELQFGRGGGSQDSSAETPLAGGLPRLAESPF

Glucagon receptor [2] = target: T1, Glucagon receptor; assay: Displacement of [125I]-glucagon from human glucagon receptor expressed in Chem-1 cell membranes after 6 to 10 hrs by scintillation proximity assay
Glucagon receptor [3] = target: T1, Glucagon receptor; assay: Antagonist activity at human glucagon receptor expressed in CHOK1 cells assessed as inhibition of glucagon-stimulated intracellular cAMP formation preincubated for 20 mins followed by glucagon stimulation measured after 30 mins by fluorescent plate reader analysis; format: functional, cell-based; conditions: CHO-K1
Glucagon receptor [4] = target: T1, Glucagon receptor; assay: Displacement of [125I]-glucagon from full length human glucagon receptor expressed in HEK293 cell membranes after 2 hrs by scintillation counting analysis
Glucagon receptor [5] = target: T1, Glucagon receptor; assay: Antagonist activity at human glucagon receptor expressed in HEK293 cell membranes assessed as inhibition of glucagon-stimulated intracellular cAMP formation preincubated for 30 mins followed by glucagon stimulation measured after 5 mins by TR-FRET analysis; format: functional, cell-based
Glucagon receptor [6] = target: T1, Glucagon receptor; assay: Displacement of [125I]-glucagon from human glucagon receptor expressed in HEK293 cell membranes at 10 uM after 2 hrs by microplate scintillation counting analysis relative to control
[7] = Half life in human; format: ADME, organism-based; conditions: in vivo
Homo sapiens [8] = assay: Antidiabetic activity in type-2 diabetic human model assessed as reduction in HbA1c level at 80 mg, qd administered for 12 weeks measured after post last dose relative to control; format: functional; set-up: scale not given: the % may be the effect or the level left
Homo sapiens [9] = species on record: Homo sapiens; assay: Hypoglycemic activity in human assessed as time required to glucose recovery from 50 mg/dl to >= 70 mg/dl at 200 mg (reference value: 33.3 min); format: functional
Homo sapiens [10] = assay: Antidiabetic activity in type-2 diabetic human model assessed as reduction in HbA1c level at 40 mg, qd administered for 12 weeks measured after post last dose relative to control; format: functional; set-up: scale not given: the % may be the effect or the level left
Homo sapiens [11] = species on record: Homo sapiens; assay: Hypoglycemic activity in human assessed as time required to glucose recovery from 50 mg/dl to >= 70 mg/dl at 1 g (reference value: 33.3 min); format: functional
Homo sapiens [12] = assay: Antidiabetic activity in type-2 diabetic human model assessed as reduction in HbA1c level at 20 mg, qd administered for 12 weeks measured after post last dose relative to control; format: functional; set-up: scale not given: the % may be the effect or the level left
Homo sapiens [13] = assay: Antidiabetic activity in type-2 diabetic human model assessed as reduction in HbA1c level at 60 mg, qd administered for 12 weeks measured after post last dose relative to control; format: functional; set-up: scale not given: the % may be the effect or the level left
Homo sapiens [14] = species on record: Homo sapiens; assay: Hypoglycemic activity in type-2 diabetic human assessed as time required to glucose recovery from 50 mg/dl to >= 63 mg/dl at 1 g in presence of beta blocker propranolol (reference value: 71 min); format: functional
Homo sapiens [15] = assay: In vivo inhibition of gucagon receptor in type-2 diabetic human model at 6 mg, qd measured during night time relative to control; format: functional
Homo sapiens [16] = assay: In vivo inhibition of gucagon receptor in type-2 diabetic human model at 10 mg, qd measured during day time relative to control; format: functional
Homo sapiens [17] = species on record: Homo sapiens; assay: Antidiabetic activity in type-2 diabetic human model assessed as decrease in fasting plasma glucose level at 6 mg, qd measured during night time; format: functional
Homo sapiens [18] = species on record: Homo sapiens; assay: Toxicity in type-2 diabetic human model assessed as increase in LDL-C level at 25 mg, bid relative to control; format: organism-based; conditions: in vivo
Homo sapiens [19] = assay: In vivo inhibition of gucagon receptor in type-2 diabetic human model at 25 mg, bid measured over 24 hrs relative to control; format: functional
Homo sapiens [20] = species on record: Homo sapiens; assay: Antidiabetic activity in type-2 diabetic human model assessed as decrease in 24 hrs weighted mean glucose level at 10 mg, qd measured during day time; format: functional
Homo sapiens [21] = species on record: Homo sapiens; assay: Antidiabetic activity in type-2 diabetic human model assessed as decrease in fasting plasma glucose level at 10 mg, qd measured during day time; format: functional
Homo sapiens [22] = species on record: Homo sapiens; assay: Antidiabetic activity in type-2 diabetic human model assessed as decrease in fasting plasma glucose level at 25 mg, bid; format: functional

SMILES: CC(C)(C)CC[C@H](c1ccc(C(=O)NCCC(=O)O)cc1)N1C(=O)C(c2cccc(F)c2)=NC12CCC([Si](C)(C)C)CC2 (stereo partly specified)
IC50 (Glucagon receptor [1]): 22 nM

IC50 (Glucagon receptor [1]): 61 nM
SMILES: CC(C)(C)CCOc1cccc(C2=NC3(CCC(C(C)(C)C)CC3)N([C@H](CCC(C)(C)C)c3ccc(C(=O)NCc4nn[nH]n4)cc3)C2=O)c1 (stereo partly specified)

Ki (Glucagon receptor [2]): 26 nM
Kb (Glucagon receptor [3]): 9.5 nM
SMILES: CCC[C@H](Nc1ccc(-n2cc(-c3ccccc3)cn2)cc1)c1ccc(C(=O)NCCC(=O)O)cc1

Ki (Glucagon receptor [4]): 17 nM
IC50 (Glucagon receptor [5]): 22 nM
SMILES: Cc1cc(C(F)(F)F)ccc1-c1ccc(NCc2ccc(C(F)(F)F)cc2-c2ccc(C(=O)NCCC(=O)O)nc2)cc1Cl

Ki (Glucagon receptor [4]): 30 nM
SMILES: Cc1cc(C(F)(F)F)ccc1-c1ccc(NCc2cc(C(C)C)cc(C(F)(F)F)c2-c2ccc(C(=O)NCCC(=O)O)cc2)cc1Cl

Ki (Glucagon receptor [4]): 20 nM
IC50 (Glucagon receptor [5]): 4 nM
SMILES: Cc1cc(Cl)ccc1-c1ccc(NCc2cc(Cl)cc(C(F)(F)F)c2-c2ccc(C(=O)NCCC(=O)O)nc2)cc1

inhibition (Glucagon receptor [6]): 91%
SMILES: Cc1cc(-c2ncc(C(F)(F)F)cn2)ccc1C(CCC(F)(F)F)Nc1ccc(C(=O)N2CCC[C@@H](C(=O)O)C2)cc1 (stereo partly specified)

inhibition (Glucagon receptor [6]): 90%
SMILES: Cc1cc(-n2cc3c(n2)CCCC3)ccc1C(CCC(F)(F)F)Nc1ccc(C(=O)N2CCC[C@@H](C(=O)O)C2)cn1 (stereo partly specified)

Kb (Glucagon receptor [3]): 33 nM
SMILES: Cc1cc2cc(F)ccc2nc1NC(c1ccc(C(=O)NCCC(=O)O)cc1)C1CC(C)(C)C1 (stereo unspecified)

Kb (Glucagon receptor [3]): 23 nM
SMILES: Cc1cc2ccccc2nc1NC(c1ccc(C(=O)NCCC(=O)O)cc1)C1CC(C)(C)C1 (stereo unspecified)

Kb (Glucagon receptor [3]): 19 nM
SMILES: CC1(C)CC(C(Nc2cnc(-n3cc(C(F)(F)F)cn3)nc2)c2ccc(C(=O)NCCC(=O)O)cc2)C1 (racemic)

half-life [7]: 60 h
SMILES: COc1ccc2cc(-c3cc(-c4cc(Cl)cc(Cl)c4)nn3[C@@H](C)c3ccc(C(=O)NCCC(=O)O)cc3)ccc2c1 [MK-0893]
Activity (Homo sapiens [8]): 1.8%
Time (Homo sapiens [9]): 45 min
Activity (Homo sapiens [10]): 1%
Time (Homo sapiens [11]): 59.1 min
Activity (Homo sapiens [12]): 0.6%
Activity (Homo sapiens [13]): 1.5%
Time (Homo sapiens [14]): 103 min

half-life [7]: 4 h
SMILES: CCC[C@H](c1ccc(C(=O)NCCC(=O)O)cc1)[C@H](c1ccc(Cl)cc1)c1c[nH]c2c(F)cc(C)cc12 [MK-3577]
inhibition (INH) (Homo sapiens [15]): <50%
inhibition (INH) (Homo sapiens [16]): <50%
Activity (Homo sapiens [17]): 17.5 mg/dL
Activity (Homo sapiens [18]): 10%
inhibition (INH) (Homo sapiens [19]): >80%
Activity (Homo sapiens [20]): 18.8 mg/dL
Activity (Homo sapiens [21]): 7.2 mg/dL
Activity (Homo sapiens [22]): 31.7 mg/dL
